The results in this text go back to patent US8450374B2, “Pan-antagonists for the androgen receptor and androgen receptor mutants associated with anti-androgen withdrawal” (priority 2009, dated 2013).

SMILES strings stand for the structures. Numbering of substitutions follows the chain as printed.

The subject of series [1] is prostate tissues. Kind of series: Prostate apoptosis by TUNEL after short-term IP treatment (PLM6, bicalutamide). The series is classed as in vivo, Male C57BI/6 mice. Conditions: 25 mg/kg/day IP, mean ± SE. The procedure:
FIG. 6. […] Single 20× magnification fields from each of four lobes of mouse prostate glands were counted in each mouse. […] Data are expressed as means±SE. Statistics were determined using two-tailed, paired t-tests assuming data from each lobe was independent.
(§1) Prostates were removed from 3 day and 5 day treatment groups, sectioned and stained by H&E and TUNEL.
PLM6-induced glandular apoptosis was 19.9±2.8 cells per 20× field on day 3 (P=0.0064) that reached 24.63±3 cells per 20× field on day 5 (P=2.59×10^−4) (FIG. 7). Prostates from treated and control mice were isolated, fixed sectioned and stained TUNEL (BrdU). Sections were then evaluated by visible light microscopy and counting.

The conditions of series [2]: 25 mg/kg/day IP; PLM6 death at 5 days of treatment.
Source text: as §1

Series [3] has as its target T1, AR T877A (Homo sapiens, UniProt P10275, T878A).
T1 sequence (P10275 1-920 T878A): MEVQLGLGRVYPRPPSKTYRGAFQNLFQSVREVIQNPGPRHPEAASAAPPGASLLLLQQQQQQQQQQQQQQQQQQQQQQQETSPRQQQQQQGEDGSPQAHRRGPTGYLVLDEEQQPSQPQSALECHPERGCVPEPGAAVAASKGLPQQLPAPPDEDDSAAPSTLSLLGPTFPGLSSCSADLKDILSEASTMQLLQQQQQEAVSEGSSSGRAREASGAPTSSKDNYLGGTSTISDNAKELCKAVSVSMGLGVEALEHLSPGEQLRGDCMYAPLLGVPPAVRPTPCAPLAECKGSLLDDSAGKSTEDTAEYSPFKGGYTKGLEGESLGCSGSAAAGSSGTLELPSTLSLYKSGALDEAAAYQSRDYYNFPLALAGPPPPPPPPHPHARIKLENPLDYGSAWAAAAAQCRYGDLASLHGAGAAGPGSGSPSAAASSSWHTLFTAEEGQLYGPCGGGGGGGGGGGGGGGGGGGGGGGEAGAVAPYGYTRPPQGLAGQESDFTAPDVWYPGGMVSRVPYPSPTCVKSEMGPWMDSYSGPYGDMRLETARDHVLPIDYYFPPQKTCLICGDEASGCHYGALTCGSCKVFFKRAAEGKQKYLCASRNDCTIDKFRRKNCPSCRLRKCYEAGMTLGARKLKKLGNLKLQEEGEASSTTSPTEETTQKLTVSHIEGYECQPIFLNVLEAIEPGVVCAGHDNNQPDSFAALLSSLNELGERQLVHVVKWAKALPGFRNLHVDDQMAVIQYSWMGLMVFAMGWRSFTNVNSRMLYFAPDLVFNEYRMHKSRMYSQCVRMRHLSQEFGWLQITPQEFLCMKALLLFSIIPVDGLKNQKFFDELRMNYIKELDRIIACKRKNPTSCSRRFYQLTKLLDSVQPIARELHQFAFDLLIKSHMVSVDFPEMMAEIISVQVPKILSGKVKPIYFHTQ
Kind of series: Transcription assay (ARE-luciferase reporter) in CV-1 cells, AR T877A. Also noted: expressed in transfected cells; host or cells: CV-1. Format: cell-based. The procedure:
(§2) Twenty-four hours prior to transfection, CV-1 cells were seeded at a density of 45,000 cells per well in 24-well cell culture plates and grown in phenol red free Dulbecco's Modified Eagle Medium (DMEM) supplemented with 10% cosmic calf serum (COS). ARE-luciferase reporter and Renilla-Luc as the internal standard and a prokaryotic expression vector encoding the wild-type androgen receptor or mutant androgen receptor were transfected with Lipofectamine (Invitrogen) following manufacturer's protocol. Five hours after transfection, media was added containing the appropriate concentrations of ligands. The cells were allowed to incubate for 38 hours before harvesting by passive lysis buffer. Cell extracts were immediately assayed using the Dual Luciferase Assay (Promega) with a Perkin-Elmer Microbeta Luminometer. […] Dose-response data was analyzed by nonlinear regression analysis using GraphPad Prism.
(A reporter such as luciferase makes a cellular process visible.)

Series [4] addresses T2, AR wt (Homo sapiens, UniProt P10275).
T2 sequence (P10275 1-920): T1 sequence (P10275 1-920 T878A) with A878T
Briefly: Transcription assay (ARE-luciferase reporter) in CV-1 cells, wild-type AR. The series is classed as cell-based. Further details: expressed in transfected cells; host or cells: CV-1. The procedure:
as §2

For series [5], the target named is T1, AR T877A. Briefly: Competitive binding assay, [3H]DHT, transfected COS-7 cells, AR T877A. Also noted: expressed in transfected cells; host or cells: COS-7. The following applies: 14 nM [3H]-DHT, read-out: Binding affinity (Ki), AR T877A. Here is the method: (§3) Twenty-four hours prior to transfection, COS-7 cells were seeded at a density of 70,000 cells per well in 24-well cell culture plates and grown in phenol red free Dulbecco's Modified Eagle Medium (DMEM) supplement with 10% cosmic calf serum (CCS). The cells were transfected with a prokaryotic expression vector encoding the wild-type androgen receptor or mutant androgen receptor using Lipofectamine (Invitrogen) following manufacturer's protocol. […] Cells were washed with PBS and harvested in 2% SDS, 10% glycerol, and 10 mM Tris, pH 6.8, and radioactivity determined by scintillation counting.

Series [6] deals with T2, AR wt. Briefly: Competitive binding assay, [3H]DHT, transfected COS-7 cells, wild-type AR. Also noted: expressed in transfected cells; host or cells: COS-7. Conditions: 8 nM [3H]-DHT, read-out: Binding affinity (Ki), AR wt. Here is the method:
as §3

In series [7] the target is T3, AR W741C (Homo sapiens, UniProt P10275, W742C).
T3 sequence (P10275 1-920 W742C): T1 sequence (P10275 1-920 T878A) with W742C, A878T
Briefly: Competitive binding assay, [3H]DHT, transfected COS-7 cells, AR W741C. Also noted: expressed in transfected cells; host or cells: COS-7. The following applies: 75 nM [3H]-DHT, read-out: Binding affinity (Ki), AR W741C. Here is the method: as §3

Turning to `CC(O)(CS(=O)(=O)c1ccc(F)cc1)C(=O)Nc1ccc(C#N)c(C(F)(F)F)c1` (stereo not shown) [Bicalutamide, bicalutamide], the “Glandular apoptosis, apoptotic cells” value was 21.04±4.7 cells per 20× field in series [1] (day 3, TUNEL) and 50.83±8.2 cells per 20× field in series [1] (day 5, TUNEL). Besides, the Deaths result in series [2] is “two”.
For `CN(C)CCCOc1ccccc1Cc1ccccc1S(=O)(=O)CC(C)(O)C(=O)Nc1ccc(C#N)c(C(F)(F)F)c1` (stereo not shown) [PAN12], the figures for the IC50 in series [3] and in series [4] were 4.1 ± 0.7 µM and 2.4 µM, respectively. Besides, in series [3] (in competition with 10 nM DHT), the “Antagonist efficacy (RLU value at IC50), AR T877A” value was “(53% ± 5.6%)”. In addition, in series [4] (in competition with 3 nM DHT, normalized to 10 nM DHT in hAR(wt)), the “Antagonist efficacy (RLU value at IC50), AR wt” value was “(59%)”. The Ki (in general, a dissociation constant, usually derived from enzyme kinetics or from competition with a known ligand) turned out to be 2.6 µM in series [5], 5.8 µM in series [6] and 16 µM in series [7].
